{"source": "paper PMC4203399", "about": "(Journal of Medicinal Chemistry, 2014)", "key": {"Huh-5-2 cells": {"system": "Huh-5-2 cells", "assay": "MTS assay of antimetabolic effect, Huh-5-2", "assay_type": "cell-based", "settings": "data not shown"}, "[1]": {"system": "genotype 1b HCV subgenomic replicon in Huh-5-2 cells", "assay_type": "cell-based, hepatitis C virus"}, "recombinant NS5BCΔ21 1b": {"biological_target": "recombinant NS5BCΔ21 1b (Hepatitis C virus genotype 1b, UniProt O92972)", "assay": "NS5B primer dependent elongation", "assay_type": "biochemical", "settings": "for inhibition at 50 µM: read-out: inhibition of NS5B RdRp activity, screen at 50 μM"}}, "data": [{"smiles": "CN1c2c(C(=O)Nc3ccc(NS(C)(=O)=O)cc3)nn(-c3ccccc3Cl)c2-c2ccccc2S1(=O)=O", "note": "[2c, 1-(2-Chlorophenyl)-4-methyl-N-{4-[(methylsulfonyl)amino]phenyl}-1,4-dihydropyrazolo[4,3-c][1,2]benzothiazine-3-carboxamide 5,5-Dioxide]", "values": [{"measurement": "antimetabolic effect after dose–response curve analysis", "setting": "Huh-5-2 cells", "result": "displayed antimetabolic effect"}]}, {"smiles": "CN1c2c(C(=O)Nc3ccc(NS(C)(=O)=O)cc3)nn(-c3cccc(Br)c3)c2-c2ccccc2S1(=O)=O", "note": "[2d, 1-(3-Bromophenyl)-4-methyl-N-{4-[(methylsulfonyl)amino]phenyl}-1,4-dihydropyrazolo[4,3-c][1,2]benzothiazine-3-carboxamide 5,5-Dioxide]", "values": [{"measurement": "assessment of anti-HCV activity in the replicon assay (in words)", "setting": "[1]", "result": "selective anti-HCV activity without any antimetabolic effect"}]}, {"smiles": "CN1c2c(C(=O)Nc3ccc(NS(C)(=O)=O)cc3)nn(-c3ccc(Br)cc3)c2-c2ccccc2S1(=O)=O", "note": "[2e, 1-(4-Bromophenyl)-4-methyl-N-{4-[(methylsulfonyl)amino]phenyl}-1,4-dihydropyrazolo[4,3-c][1,2]benzothiazine-3-carboxamide 5,5-Dioxide]", "values": [{"measurement": "assessment of anti-HCV activity in the replicon assay (in words)", "setting": "[1]", "result": "selective anti-HCV activity without any antimetabolic effect"}]}, {"smiles": "CN1c2c(C(=O)Nc3ccc(NS(C)(=O)=O)cc3)nn(-c3ccccc3Br)c2-c2ccccc2S1(=O)=O", "note": "[2f, 1-(2-Bromophenyl)-4-methyl-N-{4-[(methylsulfonyl)amino]phenyl}-1,4-dihydropyrazolo[4,3-c][1,2]benzothiazine-3-carboxamide 5,5-Dioxide]", "values": [{"measurement": "assessment of anti-HCV activity in the replicon assay (in words)", "setting": "[1]", "result": "false positives"}]}, {"smiles": "Cc1cccc(-n2nc(C(=O)Nc3ccc(NS(C)(=O)=O)cc3)c3c2-c2ccccc2S(=O)(=O)N3C)c1", "note": "[2g, 4-Methyl-1-(3-methylphenyl)-N-{4-[(methylsulfonyl)amino]phenyl}-1,4-dihydropyrazolo[4,3-c][1,2]benzothiazine-3-carboxamide 5,5-Dioxide]", "values": [{"measurement": "assessment of anti-HCV activity in the replicon assay (in words)", "setting": "[1]", "result": "selective anti-HCV activity without any antimetabolic effect"}]}, {"smiles": "Cc1ccccc1-n1nc(C(=O)Nc2ccc(NS(C)(=O)=O)cc2)c2c1-c1ccccc1S(=O)(=O)N2C", "note": "[2i, 4-Methyl-1-(2-methylphenyl)-N-{4-[(methylsulfonyl)amino]phenyl}-1,4-dihydropyrazolo[4,3-c][1,2]benzothiazine-3-carboxamide 5,5-Dioxide]", "values": [{"measurement": "antimetabolic effect after dose–response curve analysis", "setting": "Huh-5-2 cells", "result": "displayed antimetabolic effect"}]}, {"smiles": "COc1cccc(-n2nc(C(=O)Nc3ccc(NS(C)(=O)=O)cc3)c3c2-c2ccccc2S(=O)(=O)N3C)c1", "note": "[2j, 1-(3-Methoxyphenyl)-4-methyl-N-{4-[(methylsulfonyl)amino]phenyl}-1,4-dihydropyrazolo[4,3-c][1,2]benzothiazine-3-carboxamide 5,5-Dioxide]", "values": [{"measurement": "anti-NS5B activity (in words)", "setting": "recombinant NS5BCΔ21 1b", "result": "inactive"}, {"measurement": "inhibition at 50 µM", "setting": "recombinant NS5BCΔ21 1b", "result": "< 50", "unit": "%"}]}, {"smiles": "CN1c2c(C(=O)Nc3ccc(NS(C)(=O)=O)cc3)nn(-c3cccc(C(F)(F)F)c3)c2-c2ccccc2S1(=O)=O", "note": "[2l, 4-Methyl-N-{4-[(methylsulfonyl)amino]phenyl}-1-[3-(trifluoromethyl)phenyl]-1,4-dihydropyrazolo[4,3-c][1,2]benzothiazine-3-carboxamide 5,5-Dioxide]", "values": [{"measurement": "inhibition at 50 µM", "setting": "recombinant NS5BCΔ21 1b", "result": "≥ 50", "unit": "%"}, {"measurement": "assessment of anti-HCV activity in the replicon assay (in words)", "setting": "[1]", "result": "selective anti-HCV activity without any antimetabolic effect"}]}, {"smiles": "CN1c2c(C(=O)Nc3ccc(NS(C)(=O)=O)cc3)nn(-c3ccc(C(F)(F)F)cc3)c2-c2ccccc2S1(=O)=O", "note": "[2m, 4-Methyl-N-{4-[(methylsulfonyl)amino]phenyl}-1-[4-(trifluoromethyl)phenyl]-1,4-dihydropyrazolo[4,3-c][1,2]benzothiazine-3-carboxamide 5,5-Dioxide]", "values": [{"measurement": "inhibition at 50 µM", "setting": "recombinant NS5BCΔ21 1b", "result": "≥ 50", "unit": "%"}, {"measurement": "antimetabolic effect after dose–response curve analysis", "setting": "Huh-5-2 cells", "result": "displayed antimetabolic effect"}]}, {"smiles": "CN1c2c(C(=O)Nc3ccc(NS(C)(=O)=O)cc3)nn(-c3ccccc3C(F)(F)F)c2-c2ccccc2S1(=O)=O", "note": "[2n, 4-Methyl-N-{4-[(methylsulfonyl)amino]phenyl}-1-[2-(trifluoromethyl)phenyl]-1,4-dihydropyrazolo[4,3-c][1,2]benzothiazine-3-carboxamide 5,5-Dioxide]", "values": [{"measurement": "inhibition at 50 µM", "setting": "recombinant NS5BCΔ21 1b", "result": "< 50", "unit": "%"}]}, {"smiles": "CN1c2c(C(=O)Nc3ccc(NS(C)(=O)=O)cc3)nn(-c3ccc(F)c(F)c3)c2-c2ccccc2S1(=O)=O", "note": "[2o, 1-(3,4-Difluorophenyl)-4-methyl-N-{4-[(methylsulfonyl)amino]phenyl}-1,4-dihydropyrazolo[4,3-c][1,2]benzothiazine-3-carboxamide 5,5-Dioxide]", "values": [{"measurement": "anti-NS5B activity (in words)", "setting": "recombinant NS5BCΔ21 1b", "result": "less active than compound 1"}, {"measurement": "inhibition at 50 µM", "setting": "recombinant NS5BCΔ21 1b", "result": "≥ 50", "unit": "%"}, {"measurement": "assessment of anti-HCV activity in the replicon assay (in words)", "setting": "[1]", "result": "false positives"}]}, {"smiles": "CN1c2c(C(=O)Nc3ccc(NS(C)(=O)=O)cc3)nn(-c3ccc(Cl)c(Cl)c3)c2-c2ccccc2S1(=O)=O", "note": "[2p, 1-(3,4-Dichlorophenyl)-4-methyl-N-{4-[(methylsulfonyl)amino]phenyl}-1,4-dihydropyrazolo[4,3-c][1,2]benzothiazine-3-carboxamide 5,5-Dioxide]", "values": [{"measurement": "inhibition at 50 µM", "setting": "recombinant NS5BCΔ21 1b", "result": "≥ 50", "unit": "%"}, {"measurement": "antimetabolic effect after dose–response curve analysis", "setting": "Huh-5-2 cells", "result": "displayed antimetabolic effect"}]}, {"smiles": "Cc1ccc(-n2nc(C(=O)Nc3ccc(NS(C)(=O)=O)cc3)c3c2-c2ccccc2S(=O)(=O)N3C)cc1C", "note": "[2q, 1-(3,4-Dimethylphenyl)-4-methyl-N-{4-[(methylsulfonyl)amino]phenyl}-1,4-dihydropyrazolo[4,3-c][1,2]benzothiazine-3-carboxamide 5,5-Dioxide]", "values": [{"measurement": "inhibition at 50 µM", "setting": "recombinant NS5BCΔ21 1b", "result": "< 50", "unit": "%"}]}, {"smiles": "Cc1ccc(-n2nc(C(=O)Nc3ccc(NS(C)(=O)=O)cc3)c3c2-c2ccccc2S(=O)(=O)N3C)cc1Cl", "note": "[2r, 1-(3-Chloro-4-methylphenyl)-4-methyl-N-{4-[(methylsulfonyl)amino]phenyl}-1,4-dihydropyrazolo[4,3-c][1,2]benzothiazine-3-carboxamide 5,5-Dioxide]", "values": [{"measurement": "inhibition at 50 µM", "setting": "recombinant NS5BCΔ21 1b", "result": "≥ 50", "unit": "%"}, {"measurement": "antimetabolic effect after dose–response curve analysis", "setting": "Huh-5-2 cells", "result": "displayed antimetabolic effect"}]}, {"smiles": "CN1c2c(C(=O)Nc3ccc(NS(C)(=O)=O)cc3)nn(-c3ccc(Cl)c(C(F)(F)F)c3)c2-c2ccccc2S1(=O)=O", "note": "[2s, 1-[4-Chloro-3-(trifluoromethyl)phenyl]-4-methyl-N-{4-[(methylsulfonyl)amino]phenyl}-1,4-dihydropyrazolo[4,3-c][1,2]benzothiazine-3-carboxamide 5,5-Dioxide]", "values": [{"measurement": "inhibition at 50 µM", "setting": "recombinant NS5BCΔ21 1b", "result": "< 50", "unit": "%"}, {"measurement": "antimetabolic effect after dose–response curve analysis", "setting": "Huh-5-2 cells", "result": "displayed antimetabolic effect"}]}, {"smiles": "CN1c2c(C(=O)Nc3ccc(NS(C)(=O)=O)cc3)n[nH]c2-c2ccccc2S1(=O)=O", "note": "[2u, 4-Methyl-N-{4-[(Methylsulfonyl)amino]phenyl}-1,4-dihydropyrazolo[4,3-c][1,2]benzothiazine-3-carboxamide 5,5-Dioxide]", "values": [{"measurement": "anti-NS5B activity (in words)", "setting": "recombinant NS5BCΔ21 1b", "result": "totally inactive"}, {"measurement": "inhibition at 50 µM", "setting": "recombinant NS5BCΔ21 1b", "result": "< 50", "unit": "%"}]}, {"smiles": "CN1c2c(C(=O)Nc3ccccc3)nn(-c3cccc(F)c3)c2-c2ccccc2S1(=O)=O", "note": "[compound 3, 1-(3-Fluorophenyl)-4-methyl-N-phenyl-1,4-dihydropyrazolo[4,3-c][1,2]benzothiazine-3-carboxamide 5,5-Dioxide]", "values": [{"measurement": "anti-NS5B activity (in words)", "setting": "recombinant NS5BCΔ21 1b", "result": "inactive"}, {"measurement": "assessment of anti-HCV activity in the replicon assay (in words)", "setting": "[1]", "result": "false positives"}]}, {"smiles": "CN1c2c(NC(=O)c3ccc(NS(C)(=O)=O)cc3)nn(-c3cccc(F)c3)c2-c2ccccc2S1(=O)=O", "note": "[compound 5, N-[1-(3-Fluorophenyl)-4-methyl-5,5-dioxido-1,4-dihydropyrazolo[4,3-c][1,2]benzothiazin-3-yl]-4-(methylsulfonyl)aminobenzamide]", "values": [{"measurement": "anti-NS5B activity (in words)", "setting": "recombinant NS5BCΔ21 1b", "result": "inactive"}]}]}
